ChEMBL document CHEMBL4613301, “Molecular Docking Studies of Royleanone Diterpenoids from Plectranthus spp. as P-Glycoprotein Inhibitors” (ACS Med Chem Lett, 2020)

Legend:
Format in all cases: cell-based
[1] = molecular target: T1, ATP-dependent translocase ABCB1 (Homo sapiens, UniProt P08183); experiment: Inhibition of P-gp in human NCI-H460/R cells assessed as fluorescence activity ratio at 20 uM relative to control
[2] = molecular target: T1, ATP-dependent translocase ABCB1; experiment: Ratio of inhibition of P-gp in human NCI-H460/R cells assessed as mean fluorescence intensity at 20 uM relative to control
[3] = molecular target: T1, ATP-dependent translocase ABCB1; experiment: Inhibition of P-gp in human NCI-H460/R cells assessed as mean fluorescence intensity of Rhodamine 123 at 20 uM (reference value: 16.96)

T1 sequence (P08183 whole entry): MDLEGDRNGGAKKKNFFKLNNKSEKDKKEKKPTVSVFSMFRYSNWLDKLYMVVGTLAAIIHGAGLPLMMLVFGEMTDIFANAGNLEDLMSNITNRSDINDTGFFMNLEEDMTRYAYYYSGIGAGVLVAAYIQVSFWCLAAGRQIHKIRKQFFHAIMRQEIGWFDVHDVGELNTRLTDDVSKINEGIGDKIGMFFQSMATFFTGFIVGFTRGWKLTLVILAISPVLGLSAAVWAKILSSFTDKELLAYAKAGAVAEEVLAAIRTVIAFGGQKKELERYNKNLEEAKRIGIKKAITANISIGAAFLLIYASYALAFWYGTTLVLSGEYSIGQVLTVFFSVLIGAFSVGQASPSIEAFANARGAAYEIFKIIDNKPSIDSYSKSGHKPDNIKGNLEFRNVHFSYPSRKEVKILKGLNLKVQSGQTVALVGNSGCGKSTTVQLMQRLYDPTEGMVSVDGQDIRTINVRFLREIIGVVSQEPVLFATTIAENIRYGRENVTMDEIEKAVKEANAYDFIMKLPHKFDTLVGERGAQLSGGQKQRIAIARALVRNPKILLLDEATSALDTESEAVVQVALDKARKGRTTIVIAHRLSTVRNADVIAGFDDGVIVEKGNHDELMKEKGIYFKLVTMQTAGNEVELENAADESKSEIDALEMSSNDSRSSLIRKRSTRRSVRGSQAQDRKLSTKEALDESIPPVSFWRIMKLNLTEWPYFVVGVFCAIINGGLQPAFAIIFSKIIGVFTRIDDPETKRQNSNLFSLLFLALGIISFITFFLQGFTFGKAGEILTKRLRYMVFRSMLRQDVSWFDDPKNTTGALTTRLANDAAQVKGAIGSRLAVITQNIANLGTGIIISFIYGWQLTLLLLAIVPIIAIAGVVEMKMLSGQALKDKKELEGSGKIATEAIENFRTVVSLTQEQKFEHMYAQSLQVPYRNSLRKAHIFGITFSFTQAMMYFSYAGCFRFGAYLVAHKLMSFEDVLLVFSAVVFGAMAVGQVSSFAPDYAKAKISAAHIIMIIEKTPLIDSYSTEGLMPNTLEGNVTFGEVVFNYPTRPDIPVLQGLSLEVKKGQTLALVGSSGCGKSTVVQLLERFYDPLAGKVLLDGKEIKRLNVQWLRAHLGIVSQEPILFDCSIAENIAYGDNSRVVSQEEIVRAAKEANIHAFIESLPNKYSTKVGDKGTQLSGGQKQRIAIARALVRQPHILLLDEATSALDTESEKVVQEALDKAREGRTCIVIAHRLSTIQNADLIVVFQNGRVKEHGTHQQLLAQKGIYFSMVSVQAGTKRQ

Compound | Ratio [1] | Ratio [2] | FI [3]
CC(=O)O[C@H]1C2=C(C(=O)C(OC(=O)c3ccc(Cl)cc3)=C(C(C)C)C2=O)[C@@]2(C)CCCC(C)(C)[C@@H]2[C@@H]1OC(=O)c1ccc(Cl)cc1 | 1.71 | 21.6 | 28.97
CC(=O)O[C@H]1C2=C(C(=O)C(OC(=O)c3ccccc3)=C(C(C)C)C2=O)[C@@]2(C)CCCC(C)(C)[C@@H]2[C@@H]1O | 2.1 | 26.5 | 35.54
COc1ccc(CCN(C)CCC[C@](C#N)(c2ccc(OC)c(OC)c2)C(C)C)cc1OC [DEXVERAPAMIL] | 2.13 | 26.9 | 36.07
